Measurements published in PubChem BioAssay (NCI).
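Results reflect a 48-hour exposure of cells in 96-well plates to compound at five concentrations. GI50 is the concentration that inhibits growth by half. TGI: total growth inhibition.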

Tests used:
Test in all cases: DTP human tumour cell line panel, 48 h
KM12 colon = tested on: KM12 colon
MOLT-4 leukemia = tested on: MOLT-4 leukemia
SF-539 CNS = tested on: SF-539 CNS
UO-31 renal = tested on: UO-31 renal
COLO 205 colon = tested on: COLO 205 colon
UACC-62 melanoma = tested on: UACC-62 melanoma
K-562 leukemia = tested on: K-562 leukemia
SF-295 CNS = tested on: SF-295 CNS
HL-60(TB) leukemia = tested on: HL-60(TB) leukemia
MDA-MB-231 breast = tested on: MDA-MB-231 breast
HCT-15 colon = tested on: HCT-15 colon
HOP-92 NSCLC = tested on: HOP-92 NSCLC
SK-MEL-5 melanoma = tested on: SK-MEL-5 melanoma
UACC-257 melanoma = tested on: UACC-257 melanoma
OVCAR-5 ovarian = tested on: OVCAR-5 ovarian
SR leukemia = tested on: SR leukemia
CAKI-1 renal = tested on: CAKI-1 renal
786-0 renal = tested on: 786-0 renal
SF-268 CNS = tested on: SF-268 CNS
M14 melanoma = tested on: M14 melanoma
HS 578T breast = tested on: HS 578T breast
SK-MEL-2 melanoma = tested on: SK-MEL-2 melanoma
SW-620 colon = tested on: SW-620 colon
LOX IMVI melanoma = tested on: LOX IMVI melanoma
HCT-116 colon = tested on: HCT-116 colon
TK-10 renal = tested on: TK-10 renal
MCF7 breast = tested on: MCF7 breast
RXF 393 renal = tested on: RXF 393 renal
SK-MEL-28 melanoma = tested on: SK-MEL-28 melanoma
HCC-2998 colon = tested on: HCC-2998 colon
MDA-MB-435 = tested on: MDA-MB-435
NCI-H460 lung = tested on: NCI-H460 lung
CCRF-CEM leukemia = tested on: CCRF-CEM leukemia
MALME-3M melanoma = tested on: MALME-3M melanoma

CNC(=O)c1c(NC(=O)c2ccc(C(C)(C)C)cc2)sc2c(CN(C)C)c(O)ccc12
GI50 (KM12 colon): 1.78 µM | TGI (KM12 colon): 3.2 µM | GI50 (MOLT-4 leukemia): 1.28 µM | TGI (MOLT-4 leukemia): 3.73 µM | GI50 (SF-539 CNS): 1.66 µM | TGI (SF-539 CNS): 3.13 µM | GI50 (UO-31 renal): 1.49 µM | TGI (UO-31 renal): 2.89 µM | GI50 (COLO 205 colon): 2.1 µM | TGI (COLO 205 colon): 4.3 µM | GI50 (UACC-62 melanoma): 1.76 µM | TGI (UACC-62 melanoma): 3.24 µM | GI50 (K-562 leukemia): 0.317 µM | TGI (K-562 leukemia): 1.32 µM | GI50 (SF-295 CNS): 1.86 µM | TGI (SF-295 CNS): 3.56 µM | GI50 (HL-60(TB) leukemia): 1.26 µM | TGI (HL-60(TB) leukemia): 3.18 µM | GI50 (MDA-MB-231 breast): 1.81 µM | TGI (MDA-MB-231 breast): 3.67 µM | GI50 (HCT-15 colon): 0.459 µM | TGI (HCT-15 colon): 1.82 µM | GI50 (HOP-92 NSCLC): 1.2 µM | TGI (HOP-92 NSCLC): 2.74 µM | GI50 (SK-MEL-5 melanoma): 1.81 µM | TGI (SK-MEL-5 melanoma): 3.25 µM | GI50 (UACC-257 melanoma): 1.95 µM | TGI (UACC-257 melanoma): 4.09 µM | GI50 (OVCAR-5 ovarian): 1.85 µM | TGI (OVCAR-5 ovarian): 3.68 µM | GI50 (SR leukemia): 0.99 µM | TGI (SR leukemia): 3.5 µM | GI50 (CAKI-1 renal): 1.68 µM | TGI (CAKI-1 renal): 3.25 µM | GI50 (786-0 renal): 1.74 µM | TGI (786-0 renal): 3.3 µM | GI50 (SF-268 CNS): 1.77 µM | TGI (SF-268 CNS): 3.46 µM | GI50 (M14 melanoma): 1.74 µM | TGI (M14 melanoma): 3.54 µM | GI50 (HS 578T breast): 2.02 µM | TGI (HS 578T breast): 4.56 µM | GI50 (SK-MEL-2 melanoma): 2.1 µM | TGI (SK-MEL-2 melanoma): 4.28 µM | GI50 (SW-620 colon): 1.74 µM | TGI (SW-620 colon): 3.38 µM | GI50 (LOX IMVI melanoma): 1.13 µM | TGI (LOX IMVI melanoma): 2.38 µM | GI50 (HCT-116 colon): 0.936 µM | TGI (HCT-116 colon): 2.43 µM | GI50 (TK-10 renal): 1.94 µM | TGI (TK-10 renal): 3.94 µM | GI50 (MCF7 breast): 1.41 µM | TGI (MCF7 breast): 2.95 µM | GI50 (RXF 393 renal): 1.67 µM | TGI (RXF 393 renal): 3.33 µM | GI50 (SK-MEL-28 melanoma): 1.73 µM | TGI (SK-MEL-28 melanoma): 3.19 µM | GI50 (HCC-2998 colon): 1.34 µM | TGI (HCC-2998 colon): 2.94 µM | GI50 (MDA-MB-435): 1.8 µM | TGI (MDA-MB-435): 3.34 µM | GI50 (NCI-H460 lung): 1.14 µM | TGI (NCI-H460 lung): 2.53 µM | GI50 (CCRF-CEM leukemia): 1.2 µM | TGI (CCRF-CEM leukemia): 4.68 µM | GI50 (MALME-3M melanoma): 1.73 µM | TGI (MALME-3M melanoma): 3.51 µM
